According to ChEMBL document CHEMBL5390254, “Discovery and Optimization of Novel hDHODH Inhibitors for the Treatment of Inflammatory Bowel Disease” (J Med Chem, 2023):
Activity calls are given as the source filed them. No cut-off for these calls is given here.

Experiments:
[1] = AUCt in Sprague-Dawley rat at 5 mg/kg, iv and measured upto 48 hrs by LC-MS/MS analysis; assay type: ADME, organism-based; parameters: dose 5 mg/kg, time < 48 hrs, route iv; details: in vivo
Mus musculus [2] = test: Anti-inflammatory activity against DSS-induced acute ulcerative colitis in C57BL/6 mouse model assessed as decrease in IL-17 mRNA expression level in colon at 40 mg/kg, po QD for 6 days by RT-PCR analysis; assay type: functional, organism-based; details: time 6.0 day
Mus musculus [3] = test: Anti-inflammatory activity against DSS-induced acute ulcerative colitis in C57BL/6 mouse model assessed as increase in colon length at 80 mg/kg, po QD for 6 days (Rvb= 5.3cm); assay type: functional; details: time 6 day
[4] = Metabolic stability in human liver microsomes assessed as intrinsic clearance at 3 uM incubated upto 90 mins in presence of NADPH by LC-MS/MS analysis; assay type: ADME, Microsome; details: read-out: CLH
[5] = Acute toxicity in BALB/c mouse assessed as changes in neutrophil level in blood at 600 mg/kg,po and measured after 14 days by hematology test; assay type: organism-based; details: in vivo, 336 h, time 14 day
Mus musculus [6] = test: Anti-inflammatory activity against DSS-induced acute ulcerative colitis in C57BL/6 mouse model assessed as increase in colon length at 40 mg/kg, po QD for 6 days (Rvb= 5.3cm); assay type: functional; details: time 6 day
Mus musculus [7] = test: Anti-inflammatory activity against DSS-induced acute ulcerative colitis in C57BL/6 mouse model assessed as increase in colon length at 20 mg/kg, po QD for 6 days (Rvb= 5.3cm); assay type: functional; details: time 6 day
Mus musculus [8] = test: Anti-inflammatory activity against DSS-induced acute ulcerative colitis in C57BL/6 mouse model assessed as decrease in IL-17 production in colon at 40 mg/kg, po QD for 6 days by ELISA; assay type: functional; parameters: scale not given: the % may be the effect or the level left; details: time 6 day
[9] = Apparent volume of distribution during terminal phase in Sprague-Dawley rat at 5 mg/kg, iv and measured upto 48 hrs by LC-MS/MS analysis; assay type: ADME, organism-based; details: in vivo
[10] = Acute toxicity in BALB/c mouse assessed as changes in general health status at 600 mg/kg,po and measured for 14 days; assay type: organism-based; details: in vivo, 336 h, time 14 day
Mus musculus [11] = test: Anti-inflammatory activity against DSS-induced acute ulcerative colitis in C57BL/6 mouse model assessed as decrease in IL-6 protein level in colon at 20 to 80 mg/kg, po QD for 6 days by ELISA; assay type: functional, organism-based; details: dose 20-80 mg/kg, time 6.0 day
Mus musculus [12] = test: Anti-inflammatory activity against DSS-induced acute ulcerative colitis in C57BL/6 mouse model assessed as decrease in body weight loss at 40 mg/kg, po QD for 6 days (Rvb= -13.4%); assay type: functional; parameters: scale not given: the % may be the effect or the level left; details: time 6 day
Mus musculus [13] = test: Anti-inflammatory activity against DSS-induced acute ulcerative colitis in C57BL/6 mouse model assessed as decrease in DAI score at 20 to 80 mg/kg, po QD for 6 days; assay type: functional, organism-based; details: dose 20-80 mg/kg, time 6.0 day
[14] = Drug distribution in colon of DSS-induced acute ulcerative colitis in C57BL/6 mouse model at 40 mg/kg,po and measured after 2 hrs by LC-MS/MS analysis; assay type: ADME, organism-based; details: in vivo
[15] = Acute toxicity in BALB/c mouse assessed as changes in ALT level in serum at 600 mg/kg,po and measured after 14 days by Biochemistry analysis; assay type: organism-based; details: in vivo, 336 h, time 14 day
[16] = Acute toxicity in BALB/c mouse assessed as changes in hematocrit level in blood at 600 mg/kg,po and measured after 14 days by hematology test; assay type: organism-based; details: in vivo, 336 h, time 14 day
[17] = Apparent volume of distribution during terminal phase in Sprague-Dawley rat at 15 mg/kg, po and measured upto 48 hrs by LC-MS/MS analysis; assay type: ADME, organism-based; details: in vivo, read-out: Vz/F
[18] = Acute toxicity in BALB/c mouse assessed as changes in WBC level in blood at 600 mg/kg,po and measured after 14 days by hematology test; assay type: organism-based; details: in vivo, 336 h, time 14 day
[19] = Metabolic stability in rat liver microsomes assessed as intrinsic clearance at 3 uM incubated upto 90 mins in presence of NADPH by LC-MS/MS analysis; assay type: ADME, Microsome; details: read-out: CLH
[20] = Acute toxicity in BALB/c mouse assessed as tissue damage in lung at 600 mg/kg,po and measured after 14 days by hematoxylin and eosin staining based microscopy; assay type: organism-based; details: in vivo, 336 h, time 14 day
Mus musculus [21] = test: Anti-inflammatory activity against DSS-induced acute ulcerative colitis in C57BL/6 mouse model assessed as decrease in IL-6 mRNA expression level in colon at 20 to 80 mg/kg, po QD for 6 days by RT-qPCR analysis; assay type: functional, organism-based; details: dose 20-80 mg/kg, time 6.0 day
[22] = Acute toxicity in po dosed BALB/c mouse assessed as maximum tolerate dose; assay type: organism-based; details: in vivo
Mus musculus [23] = test: Anti-inflammatory activity against DSS-induced acute ulcerative colitis in C57BL/6 mouse model assessed as decrease in IL-1beta production in colon at 40 mg/kg, po QD for 6 days by ELISA; assay type: functional; parameters: scale not given: the % may be the effect or the level left; details: time 6 day
[24] = Acute toxicity in BALB/c mouse assessed as body weight loss at 600 mg/kg,po and measured for 14 days; assay type: organism-based; details: in vivo, 336 h, time 14 day
[25] = Acute toxicity in BALB/c mouse assessed as changes in TP level in serum at 600 mg/kg,po and measured after 14 days by Biochemistry analysis; assay type: organism-based; details: in vivo, 336 h, time 14 day
[26] = Acute toxicity in BALB/c mouse assessed as tissue damage in kidney at 600 mg/kg,po and measured after 14 days by hematoxylin and eosin staining based microscopy; assay type: organism-based; details: in vivo, 336 h, time 14 day
[27] = Acute toxicity in BALB/c mouse assessed as changes in ALB level in serum at 600 mg/kg,po and measured after 14 days by Biochemistry analysis; assay type: organism-based; details: in vivo, 336 h, time 14 day
[28] = Cmax in Sprague-Dawley rat at 15 mg/kg, po and measured upto 48 hrs by LC-MS/MS analysis; assay type: ADME, organism-based; parameters: dose 15 mg/kg, time < 48 hrs, route po; details: in vivo
Mus musculus [29] = test: Anti-inflammatory activity against DSS-induced acute ulcerative colitis in C57BL/6 mouse model assessed as decrease in IL-1beta mRNA expression level in colon at 20 to 80 mg/kg, po QD for 6 days by RT-qPCR analysis; assay type: functional, organism-based; details: dose 20-80 mg/kg, time 6.0 day
[30] = Tmax in Sprague-Dawley rat at 15 mg/kg, po and measured upto 48 hrs by LC-MS/MS analysis; assay type: ADME, organism-based; details: in vivo
Mus musculus [31] = test: Anti-inflammatory activity against DSS-induced acute ulcerative colitis in C57BL/6 mouse model assessed as decrease in IL-1beta mRNA expression level in colon at 40 mg/kg, po QD for 6 days by RT-PCR analysis; assay type: functional, organism-based; details: time 6.0 day
Mus musculus [32] = test: Anti-inflammatory activity against DSS-induced acute ulcerative colitis in C57BL/6 mouse model assessed as decrease in DAI score at 40 mg/kg, po QD for 6 days; assay type: functional, organism-based; details: time 6.0 day
Mus musculus [33] = test: Anti-inflammatory activity against DSS-induced acute ulcerative colitis in C57BL/6 mouse model assessed as decrease in IL-6 mRNA expression level in colon at 40 mg/kg, po QD for 6 days by RT-PCR analysis; assay type: functional, organism-based; details: time 6.0 day

SMILES: Nc1nc(-c2cn(Cc3c(F)cccc3Cl)c3ncccc23)ncc1C1CC1
- AUC(0-t) at 48 h [1]: 17900 ng·h/mL
- Activity (Mus musculus [2]): Active
- Activity (Mus musculus [3]): 7.5 cm
- CLint scaled at 3 µM [4]: 91.8 mL/min/kg
- Activity [5]: Non-Toxic
- Activity (Mus musculus [6]): 6.7 cm
- Activity (Mus musculus [7]): 6.1 cm
- Activity (Mus musculus [8]): 57.35%
- Vz/F [9]: 1.05 L/kg
- Activity [10]: Non-Toxic
- Activity (Mus musculus [11]): Dose-Dependent Effect
- Activity (Mus musculus [12]): -4.2%
- Activity (Mus musculus [13]): Dose-Dependent Effect
- Drug uptake [14]: Active
- Activity [15]: Non-Toxic
- Activity [16]: Non-Toxic
- Vd/F [17]: 2.95 L/kg
- Activity [18]: Non-Toxic
- CLint scaled at 3 µM [19]: 319 mL/min/kg
- Activity [20]: Non-Toxic
- Activity (Mus musculus [21]): Dose-Dependent Effect
- MTD [22]: 600 mg/kg
- Activity (Mus musculus [23]): 84.32%
- Activity [24]: Non-Toxic
- Activity [25]: Non-Toxic
- Activity [26]: Non-Toxic
- Activity [27]: Non-Toxic
- Cmax [28]: 2680 ng/mL
- Activity (Mus musculus [29]): Dose-Dependent Effect
- Tmax [30]: 2 h
- Activity (Mus musculus [31]): Active
- Activity (Mus musculus [32]): Active
- Activity (Mus musculus [33]): Active
